Results on nine compounds are retold here after paper PMC10087458 (Chemical Biology & Drug Design, 2022).

Data set [1] is described as follows: Equilibrium solubility, modified shake-flask method with HPLC quantification. The conditions noted are these: shake-flask 24 h, HPLC 230 nm. It counts as physicochemical. The method, then:
The equilibrium solubility of ADN‐PEG‐conjugates was determined using a modified version of the shake‐flask method (Plöger et al., [2018]). An excess of the ADN‐PEG‐conjugate was added to either phosphate buffer solution (PBS buffer) or deuterium‐depleted water (DDW) at a pH value of 6.8. The resulting suspension was shaken at 37°C until a (thermodynamic) equilibrium was reached between saturated solution and undissolved solid. Solubility quantification of the samples was achieved using high‐pressure liquid chromatography (HPLC) analysis.
An excess amount of the PEG-ADN conjugates was added into a 20 mL glass vial containing either phosphate buffer solution or DDW. The samples were placed into a shaking water bath at 150 rpm at 37ᵒC for 24h. The supernatant was withdrawn from the suspension using a micro centaur MSB010.CX2.5 centrifuge (MSE Ltd., London, UK) at 1.3 × 10,000 rpm for 1 min.

Data set [2] concerns adenosine receptors in RAW264.7 cells. Put plainly: cAMP accumulation in RAW264.7 macrophages (cAMP ELISA). Format: cell-based, murine. The following applies: for increase in cAMP compared with forskolin: 1 μM, 10 min incubation, PDE inhibitor pre-treatment, positive control forskolin 1 μM. (Cyclic AMP is a second messenger, typically raised through Gs and lowered through Gi signalling.)

For data set [3], the system named is murine macrophages RAW 264.7. Put plainly: Resazurin cytotoxicity assay on RAW 264.7 macrophages. Format: cell-based. The conditions noted are these: Mus musculus. Background: Alamar Blue is a resazurin reagent that responds to reducing activity.
Data set [4] concerns Mycobacterium aurum (ATCC 23366). Description: HT-SPOTi anti-mycobacterial assay, M. aurum. Format: cell-based. The conditions noted are these: Mycolicibacterium aurum.
Data set [5] concerns Mycobacterium bovis BCG (ATCC35734). Description: microbe, parasite or virus in culture. It counts as cell-based. The following applies: Mycobacterium tuberculosis variant bovis BCG, read-out: MIC90 M. bovis BCG, HT-SPOTi; lowest concentration inhibiting 90% of the bacteria.
Data set [6] concerns Mycobacterium tuberculosis in a persistent state. Also on record: method as in Barrow et al., [2003]. The conditions noted are these: ref Barrow et al., [2003]; cited from earlier work.
Data set [7] concerns Mycobacterium aurum (ATCC 23366). Also on record: method as in Ferguson et al., [2020]. The following applies: ref Ferguson et al., [2020]; cited from earlier work.
Data set [8] relates to Mycobacterium bovis BCG (ATCC35734). The conditions noted are these: ref Ferguson et al., [2020]; cited from earlier work.
Where [9] appears, read: aqueous buffer, thermodynamic from solid, phosphate buffer solution pH 6.8, 37°C, read-out: Solubility (mean ± SD) PBS.
Setting [10] is: pH 7, thermodynamic from solid, deuterium-depleted water (DDW), 37°C, read-out: Solubility (mean ± SD) DDW.
Setting [11] is: RAW264.7, 50% inhibition of cell proliferation, resazurin micro dilution method, RAW 264.7 murine macrophages, read-out: GIC50 RAW 264.7.
Setting [12] is: ATCC23366, HT-SPOTi, lowest concentration inhibiting 90% of the bacteria, read-out: MIC90 M. aurum.

≈ marks a conversion by molar mass, not a printed value. Entries after “also recorded” stand apart in the source; their conditions may differ. Read-outs that look alike come from different tables or passages of the source.

On to `CS(=O)(=O)OCCOCCOCCOCCOCC#Cc1nc(N)c2ncn([C@@H]3O[C@H](CO)[C@@H](O)[C@H]3O)c2n1` [10b], for which the results for the solubility at 24 h in data set [1] (setting [9]) and in data set [1] (setting [10]) were 1220 ± 260 µg/mL (≈ 2120 µM) and 1330 ± 320 µg/mL (≈ 2310 µM), respectively. Besides, the “cAMP accumulation in RAW264.7 cells (in words)” value in data set [2] was “significant increase; also recorded: considerable increase”. In addition, the “increase in cAMP compared with forskolin” value in data set [2] was found to be 42%. Moreover, in data set [3] (setting [11]), the IC50 worked out at 250 µg/mL (≈ 434 µM). Further, the MIC90 in data set [4] (setting [12]) and in data set [5] was 250 µg/mL (≈ 434 µM) throughout.

With `CC1(C)O[C@@H]2[C@H](O1)[C@@H](CO)O[C@H]2n1cnc2c(N)nc(C#CCOCCOCCOCCOCCOCCOS(C)(=O)=O)nc21` [11c], in data set [3] (setting [11]), the IC50 came out at 62.5 µg/mL (≈ 94.7 µM). The MIC90 was 125 µg/mL (≈ 189 µM) in data set [4] (setting [12]) and 250 µg/mL (≈ 379 µM) in data set [5].

On to `Cc1nc(N)c2ncn([C@@H]3O[C@H](CO)[C@@H](O)[C@H]3O)c2n1` [2‐methyl adenosine], for which the “growth of Mycobacterium tuberculosis in a persistent state (in words)” value in data set [6] is on record as “inhibited the growth”.

Turning to `NNC(=O)c1ccncc1` [Isoniazid, isoniazid, reference compound], the IC50 in data set [3] (setting [11]) amounted to 500 µg/mL (≈ 3650 µM). Besides, the figures for the MIC90 in data set [4] (setting [12]) and in data set [5] were 7.81 µg/mL (≈ 56.9 µM) and 0.49 µg/mL (≈ 3.57 µM), respectively.

As for `CC1(C)O[C@@H]2[C@H](O1)[C@@H](COS(N)(=O)=O)O[C@H]2n1cnc2c(N)nc(C#CCOCCOCCOCCOCCOCCOS(C)(=O)=O)nc21` [12c], the IC50 in data set [3] (setting [11]) was 31.2 µg/mL (≈ 42.2 µM). The MIC90 in data set [4] (setting [12]) was 62.5 µg/mL (≈ 84.6 µM); in data set [5], 500 µg/mL (≈ 677 µM).

In the case of `Nc1nc(I)nc2c1ncn2[C@@H]1O[C@H](CO)[C@@H](O)[C@H]1O` [compound 9, 2‐iodoadenosine, reference compound], the IC50 in data set [3] (RAW264.7, read-out: GIC50 RAW 264.7) was 250 µg/mL (≈ 636 µM). Moreover, the MIC90 in data set [4] (ATCC23366, read-out: MIC90 M. aurum) turned out to be 125 µg/mL (≈ 318 µM); in data set [5] it was 15.6 µg/mL (≈ 39.7 µM). Besides, the “bactericidal activity against M. aurum (in words)” value in data set [7] is reported as “not”. Also, the “bactericidal activity against M. bovis (in words)” value in data set [8] was “exhibited bactericidal activity”.

Turning to `CC1(C)O[C@@H]2[C@H](O1)[C@@H](CO)O[C@H]2n1cnc2c(N)nc(C#CCOCCOCCOCCOCCOS(C)(=O)=O)nc21` [11b], the solubility at 24 h in data set [1] (setting [9]) is 1180 ± 190 µg/mL (≈ 1920 µM); in data set [1] (setting [10]) it was 1160 ± 640 µg/mL (≈ 1880 µM). Further, the “cAMP accumulation in RAW264.7 cells (in words)” value in data set [2] is listed as “significant increase; also recorded: considerable increase”. In addition, in data set [2], the “increase in cAMP compared with forskolin” value was 46%. The IC50 in data set [3] (setting [11]) came to 62.5 µg/mL (≈ 102 µM). Also, the MIC90 in data set [4] (setting [12]) and in data set [5] was 500 µg/mL (≈ 812 µM) each time.

For `CS(=O)(=O)OCCOCCOCCOCCOCCOCC#Cc1nc(N)c2ncn([C@@H]3O[C@H](CO)[C@@H](O)[C@H]3O)c2n1` [10c], the IC50 in data set [3] (setting [11]) is 250 µg/mL (≈ 403 µM). Further, the MIC90 in data set [4] (setting [12]) and in data set [5] was 250 µg/mL (≈ 403 µM) in each case.

`Nc1ncnc2c1ncn2[C@@H]1O[C@H](CO)[C@@H](O)[C@H]1O` [Adenosine, adenosine, reference compound]: the “increase in cAMP compared with forskolin” value in data set [2] worked out at 48%.

As a reminder, the solubility is how much of the substance goes into solution per volume.
